Several values for one entry are separate records, joined by “and”; a condition that tells them apart may be missing. Equal entries are not always repeated.
Legend:
plasma stability = assay type: in vitro ADME; settings: rat plasma; for Plasma stability, remaining of the intact test compound: 37° C.
Protocol: Briefly, each tube is added 882 μL of 1:1 diluted rat plasma with phosphate buffer (pH 7.4). 18 μL (100 μM) of DMSO stock solution of the test compound (4, 13 and 15) or positive control compound (Diltiazem) was added to make a final compound concentration 2 μM in the plasma solution and final DMSO content 2%. The mixture was incubated at 37° C. After the incubation at 0, 15, 30, 60, and 120 min time points, aliquots of 50 μL samples were quenched with 100 μL of ice-cold acetonitrile with 25 μM of the internal reference (for HPLC analysis), respectively. The quenched samples were centrifuged at 10,000×g, and the supernatant was analyzed by HPLC. The percentage of remaining intact test compound was calculated by (peak area at the specific time point)/(peak area at 0 min)×100. Every sample was assayed three times.

mGluR4 [1] = molecular target: T1, mGluR4 (Homo sapiens, UniProt Q14833); experiment: competitive binding (radioligand replacement) assay with [3H]4 in mGluR4 transfected CHO cells; set-up: expressed in transfected cells; host or cells: CHO cells; settings: 2 nM [3H]4, read-out: IC50 (nM), affinity to mGluR4
Protocol: In Vitro mGluR4 Binding Assay. CHO cells expressing mGluR4 were used for all binding assay protocols. For competitive binding, 2 nM of [^3H]4 was used together with increased concentrations of test compounds ranging from 0.01 nM to 10 μM. Each test tube contained 50 000 freshly harvested CHO cells expressing mGluR4 cultured in HAMs cell culture medium with 100 nM of glutamate, penicillin-streptomycin (100 units), and 1 mM G418. [3H]4 (2 nM) was added to the cell extract with and without test compounds on ice and then incubated for 30 min at room temperature. Samples were centrifuged at 1200 rpm for 10 min at 4° C. and washed three times with a cold cell culture medium as a washing buffer. Samples were lysed by adding 100 μL of 0.5% NaOH and heated using a heating block (56° C., 30 min). Samples were cooled with an ice bath and transferred to Solvent-Saver scintillation vials (VWR International LLC.). To obtain binding parameters, the scintillation liquid (PerkinElmer, Optima Gold) was added prior to counting with a scintillation counter (Packard TriCarb Model, 1 min/vial). Nonspecific binding was determined using 10 μM of nonradioactive test compound, and specific binding was determined by extracting the nonspecific binding from total binding. All measurements were done in triplicate and analyzed with GraphPad Prism software (GraphPad Software Inc.).

microsomal stability = assay type: in vitro ADME, Sprague-Dawley rat; settings: rat liver microsomes, NADPH
Protocol: First, Sprague-Dawley rat liver microsomes (0.5 mg/mL, Sigma-Aldrich, No. M9066) was incubated with PBS (50 mM, pH=7.4) in a reaction tube at 37° C. for 3 min. To the reaction tube were added the test compound (2 μM) and then cofactor, NADPH (1 mM), to start the reaction. The mixture was shaken in a water bath at 37° C. At different time points (0, 5, 10, 15, 30 min), aliquots (50 μL) were removed and added to 100 μl of cold acetonitrile with internal standard (25 μM) to quench the reaction. The precipitated material was by centrifugation (10,000×g, 10 min, 4° C.), and the supernatant was analyzed by RP-HPLC (Column: Phenomenex Luna© 5 μm, Cis, 100 Å, 250×4.6 mm). The RP-HPLC was carried out by using a 15-min gradient method: eluent A: 0.1% formic acid/H2O; eluent B: 0.1% formic acid/CH3CN; gradient: […]; 5% B to 95% B from 1 to 9 min, 95% B from 9 to 12 min, 95% to 5% B from 12 to 13 min, 5% B from 13 to 15 min; flow rate at 0.7 mL/min.
The in peak area ratio (test compound peak area at a time point/peak area at 0 min time point) was plotted against time and the gradient of the line was determined. Subsequently, the half-life (t1/2) was calculated as 0.693/k, where the elimination rate constant k equals to −gradient. V (μL/mg) was obtained as a ratio of volume of incubation […]/protein in the incubation (mg). Finally, the intrinsic clearance (CLint) (μL/min/mg protein) was calculated as V*0.693/t1/2.

solution stability = assay type: physicochemical
Protocol: Three pH values, 5, 7.4 and 9.4 were selected to check the solution stability. Aqueous solutions with different pH values were established using the following buffers: sodium acetate-KCl—HCl buffer (20 mM, pH 5.0), phosphate buffer (20 mM, pH 7.4), and boric acid-KCl—NaOH buffer (20 mM, pH 9.4). 891 μL of each pH buffer was placed in different tubes. 9 μL (1 mM) of the sample stock (4, 13, 15 and Diltiazem) was transferred to a particular buffer tube and mixed just before the time 0 min. The mixture was vortexed and incubated at 37° C. After the incubation at the different time points (0, 15, 30, 60, and 120 min), aliquots of 50 μL samples were quenched with 100 μL of ice-cold acetonitrile with 25 μM internal reference, respectively, and analyzed by HPLC. The percentage of the remaining intact compound was calculated by (peak area at the specific time point)/(peak area at 0 min)×100. Every sample was assayed three times.

mGluR4 [2] = molecular target: T1, mGluR4; experiment: GloSensor cAMP biosensor assay, mGluR4 PAM and agonist activity; assay type: cell-based; set-up: expressed in transfected cells; settings: in presence of EC20 concentration of agonist (1 μM L-SOP); read-out: EC50, mGluR4 PAM activity
Protocol: Cell Culture. HEK-293 cells were maintained with complete Dulbecco's modified Eagle's medium (DMEM), which was composed of 10% fetal bovine serum (FBS), 2 mM L-glutamine, 100 units/mL penicillin G, 100 μg/mL streptomycin at 37° C. in the presence of 5% CO2. HEK-293 stable cell lines with tetracycline inducible expression of mGluR1, mGluR2, mGluR4, mGluR6 or mGluR8 were maintained with complete DMEM with Hygromycin B (100 μg/mL), Blasticidin (15 μg/mL) at 37° C. in the presence of 5% CO2.
cAMP assay. The Gi/o coupled receptors (mGluR2, mGluR3, mGluR4, mGluR6 and mGluR8) were tested using cAMP assay. Promega's split luciferase based GloSensor cAMP biosensor technology was used in determining Gi-GPCR mediated cAMP production in live cells. On the cells stably expressing mGluR2, mGluR3, mGluR4, mGluR6 or mGluR8, GloSensor cAMP DNA construct was transfected overnight. Cells were seeded into PLL coated 384-well white clear bottom cell culture plates with complete BME Buffer with Tetracycline (1 μg/mL) at a density of 20,000 cells for another 24 h. The cell medium was removed and then 20 μL of buffer was loaded. […] Luminescence was counted in a Trilux luminescence counter. Data were analyzed with Prizm 5.0 (GraphPad software).
Secondary assays—Dose-response assays. […] For each compound, the results from four replicates were averaged and then either EC50 or IC50 values were calculated by non-linear regression using the 4-parameter logistic equation. […]
In sum, the mGluR4 PAM activity was determined using Promega's split luciferase based GloSensor cAMP biosensor assay (refs. 41-42). mGluR4 is coupling to Gαi protein to inhibit adenylate cyclase, which converts ATP to cAMP, which plays an important role in many signal transduction pathways. […] The mGluR4 PAM activity of 15 was evaluated in presence of EC20 concentration of agonist (1 μM L-SOP) by measuring changes in intracellular cAMP concentration.

mGluR4 [3] = molecular target: T2, mGluR4 (Rattus norvegicus, UniProt P31423); experiment: PET blocking studies of [18F]15 binding; assay type: in vivo, Sprague Dawley rats
T2 construct: from tissue; host or cells: brain of living male Sprague Dawley rats
Protocol: PET Imaging of [^18F]15 in Rats. Altogether 24 normal male Sprague Dawley rats were used for the imaging studies comprising 15 baseline studies and 15 blocking studies. Rats were anaesthetized with isoflurane/nitrous oxide (1.0-1.5% isoflurane, with oxygen flow of 1-1.5 L/min), and catheter was installed into tail vein for the administration of [^18F]15. Dynamic volumetric PET data was acquired with a PET-CT scanner for 60 min (Triumph-II, Tri-Foil Imaging, Northridge, Calif.). The vital signals such as heart rate and respiration rate were monitored during scanning period. PET data acquisition was started immediately after administration of radioactivity with the dose range of 18-34 MBq depending on the size of the rat followed by CT imaging to obtain anatomical information and data for attenuation correction of PET data. PET data was processed by using maximum-likelihood expectation-maximization (MLEM) algorithm with 30 iterations to dynamic volumetric images, and corrected for uniformity, scatter, and attenuation. The CT data was processed by the modified Feldkamp algorithm using matrix volumes of 512×512×512 and pixel size of […]. Co-registration of CT and PET images and analysis of PET images were carried out using PMOD3.2 software (PMOD Technology, Zurich, Switzerland).
For blocking studies, the same scanning protocols were used as for the baseline studies. For mGluR4 blocking experiments, 1, 2 or 3 mg/kg of 13 or 15 dissolved in a saline solution with 10% DMSO, 5% Tween-20 and 85% PBS was injected 1 min before iv administration of [^18F]15.

T2 sequence (P31423 33-912): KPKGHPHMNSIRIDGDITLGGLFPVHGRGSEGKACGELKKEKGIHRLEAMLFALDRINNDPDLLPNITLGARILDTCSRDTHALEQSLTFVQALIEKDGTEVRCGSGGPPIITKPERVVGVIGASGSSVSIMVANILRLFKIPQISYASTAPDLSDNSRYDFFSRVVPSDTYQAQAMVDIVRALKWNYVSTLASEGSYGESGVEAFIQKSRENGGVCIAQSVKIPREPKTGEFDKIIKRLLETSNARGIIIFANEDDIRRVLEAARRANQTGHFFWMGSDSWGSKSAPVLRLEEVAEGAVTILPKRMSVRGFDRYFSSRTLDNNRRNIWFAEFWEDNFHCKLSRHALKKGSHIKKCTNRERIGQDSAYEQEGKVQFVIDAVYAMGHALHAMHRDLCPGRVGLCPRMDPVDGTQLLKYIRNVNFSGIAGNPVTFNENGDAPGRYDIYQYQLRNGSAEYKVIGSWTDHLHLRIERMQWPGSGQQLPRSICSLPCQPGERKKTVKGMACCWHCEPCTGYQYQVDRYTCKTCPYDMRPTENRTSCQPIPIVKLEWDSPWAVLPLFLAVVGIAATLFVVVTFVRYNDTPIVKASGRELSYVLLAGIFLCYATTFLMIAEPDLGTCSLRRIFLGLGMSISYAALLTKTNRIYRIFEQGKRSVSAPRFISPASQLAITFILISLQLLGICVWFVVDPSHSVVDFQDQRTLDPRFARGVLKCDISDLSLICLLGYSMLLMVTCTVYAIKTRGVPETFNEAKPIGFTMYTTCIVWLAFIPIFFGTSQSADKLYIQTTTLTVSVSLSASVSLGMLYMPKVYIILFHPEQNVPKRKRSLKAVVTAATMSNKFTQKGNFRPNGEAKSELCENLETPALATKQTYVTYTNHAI
T1 sequence (Q14833 33-912): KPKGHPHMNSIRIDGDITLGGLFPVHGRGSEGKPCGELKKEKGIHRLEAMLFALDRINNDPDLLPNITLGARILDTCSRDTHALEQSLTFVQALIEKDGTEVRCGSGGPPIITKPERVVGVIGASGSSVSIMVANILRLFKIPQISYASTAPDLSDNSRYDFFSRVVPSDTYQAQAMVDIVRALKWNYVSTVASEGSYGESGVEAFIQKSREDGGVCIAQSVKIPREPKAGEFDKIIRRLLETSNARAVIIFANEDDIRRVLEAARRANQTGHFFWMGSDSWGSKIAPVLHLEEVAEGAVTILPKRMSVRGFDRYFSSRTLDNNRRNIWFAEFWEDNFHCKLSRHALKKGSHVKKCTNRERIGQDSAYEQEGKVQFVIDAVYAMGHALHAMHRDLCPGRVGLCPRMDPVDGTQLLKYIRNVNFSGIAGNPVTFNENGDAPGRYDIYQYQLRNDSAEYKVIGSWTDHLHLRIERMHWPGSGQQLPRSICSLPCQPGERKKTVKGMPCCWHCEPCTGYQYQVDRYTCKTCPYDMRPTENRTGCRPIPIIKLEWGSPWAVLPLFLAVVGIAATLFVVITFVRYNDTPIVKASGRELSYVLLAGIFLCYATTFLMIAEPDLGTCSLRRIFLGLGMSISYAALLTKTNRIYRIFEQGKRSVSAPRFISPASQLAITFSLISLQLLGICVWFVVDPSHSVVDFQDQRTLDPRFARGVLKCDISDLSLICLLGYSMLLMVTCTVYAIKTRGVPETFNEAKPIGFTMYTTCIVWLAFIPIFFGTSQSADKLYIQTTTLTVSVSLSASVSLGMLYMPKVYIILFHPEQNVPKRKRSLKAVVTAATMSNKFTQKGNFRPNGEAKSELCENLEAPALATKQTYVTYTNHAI

Plasma stability, remaining of the intact test compound (plasma stability; 0 min) | Plasma stability, remaining of the intact test compound (plasma stability; 15 min) | Plasma stability, remaining of the intact test compound (plasma stability; 30 min) | Plasma stability, remaining of the intact test compound (plasma stability; 60 min) | Plasma stability, remaining of the intact test compound (plasma stability; 120 min) | The plasma stability, The intact ± SEM at 120 min (%) (plasma stability; 120 min) | The solution stability, The intact ± SEM at 120 min (%) (solution stability; pH = 5.0, 37° C.) | The solution stability, The intact ± SEM at 120 min (%) (solution stability; pH = 7.4, 37° C.) | The solution stability, The intact ± SEM at 120 min (%) (solution stability; pH = 9.4, 37° C.) | EC50 (mGluR4 [2]) | blocking effect on [18F]15 binding (mGluR4 [3]; 1 mg/kg, pre-administration) | blocking of [18F]15 binding in the whole brain (mGluR4 [3]; blocking agent injected 1 min before [18F]15) | blocking of [18F]15 binding in striatum (mGluR4 [3]; dose 1 mg/kg) | blocking of [18F]15 binding in striatum (mGluR4 [3]; dose 2 mg/kg) | blocking of [18F]15 binding in striatum (mGluR4 [3]; dose 3 mg/kg) | SMILES | IC50 (mGluR4 [1]) | The microsome stability Clint (μL/min/mg protein) (microsomal stability) | The microsome stability t1/2 (microsomal stability)
– | – | – | – | – | – | – | – | – | 55 nM | – | – | – | – | – | c1ccc(Nc2nc3c(s2)CCCc2[nH]ncc2-3)nc1 [Compound 11] | – | – | –
100.00 ± 0.21% | 95.34 ± 12.08% | 95.27 ± 7.76% | 93.62 ± 8.76% | 91.52 ± 2.49% | 91.5 ± 2.5% | 85.9 ± 0.8% | 87.9 ± 3.4% | 89.3 ± 1.3% | – | 25-30% | 22-25% | 18% | 20% | 28% | CSc1cc(NC(=O)c2ccccn2)ccc1Cl [Compound 13] | 3.4 nM | 54.8 μL/min/mg protein | 25.30 min
100.00 ± 8.98% | 87.33 ± 9.53% | 75.23 ± 4.03% | 58.91 ± 13.39% | 48.97 ± 10.63% | 49.0 ± 10.6% | 94.7 ± 1.4% | 99.0 ± 5.7% | 69.8 ± 2.6% | – | – | – | – | – | – | COc1ccc([C@@H]2Sc3ccccc3N(CCN(C)C)C(=O)[C@@H]2OC(C)=O)cc1 [Diltiazem] | – | – | –

SMILES | Plasma stability, remaining of the intact test compound (plasma stability; 0 min) | Plasma stability, remaining of the intact test compound (plasma stability; 15 min) | Plasma stability, remaining of the intact test compound (plasma stability; 30 min) | Plasma stability, remaining of the intact test compound (plasma stability; 60 min) | Plasma stability, remaining of the intact test compound (plasma stability; 120 min) | The plasma stability, The intact ± SEM at 120 min (%) (plasma stability; 120 min) | The solution stability, The intact ± SEM at 120 min (%) (solution stability; pH = 5.0, 37° C.) | The solution stability, The intact ± SEM at 120 min (%) (solution stability; pH = 7.4, 37° C.) | The solution stability, The intact ± SEM at 120 min (%) (solution stability; pH = 9.4, 37° C.) | EC50 (mGluR4 [2]) | blocking effect on [18F]15 binding (mGluR4 [3]; 1 mg/kg, pre-administration) | blocking of [18F]15 binding in the whole brain (mGluR4 [3]; blocking agent injected 1 min before [18F]15) | blocking of [18F]15 binding in striatum (mGluR4 [3]; dose 1 mg/kg) | blocking of [18F]15 binding in striatum (mGluR4 [3]; dose 2 mg/kg) | blocking of [18F]15 binding in striatum (mGluR4 [3]; dose 3 mg/kg) | IC50 (mGluR4 [1]) | The microsome stability Clint (μL/min/mg protein) (microsomal stability) | The microsome stability t1/2 (microsomal stability)
COc1cc(NC(=O)c2ccccn2)ccc1Cl [Compound 4] | 100.00 ± 4.65% | 94.45 ± 1.65% | 97.56 ± 11.8% | 100.35 ± 8.04% | 98.21 ± 6.32% | 98.2 ± 6.3% | 92.7 ± 3.1% | 97.3 ± 1.1% | 89.1 ± 2.1% | – | – | – | – | – | – | 5.1 nM | 96.2 μL/min/mg protein | 14.41 min and 14.4 min

From patent publication US20220118117A1, “MODULATORS OF METABOTROPIC GLUTAMATE RECEPTOR 4” (The General Hospital Corporation, priority 2019, published 2022)
